These results are taken from patent publication US20110207807A1, “NEW USE FOR HOMOISOFLAVONE OR A SALT THEREOF” (Catholic University Industry Academy Cooperation Foundation, priority 2008, published 2011).

In one assay the test system is COX-2. As to the kind of experiment: COX-2 expression induced by UV in human keratinocytes (Western blot). The class given is cell-based. The conditions noted are these: HaCaT cells, 1 μg/mL, UV 100 J/m^2, 16 hours, vs UV only (FIG. 2a). On the procedure:
In order to investigate the effect of homoisoflavanone on COX-2 expression induced by UV in human keratinocytes, HaCaT cells (5×10^5 cells) were inoculated on a 60-mm culture dish and cultured for 24 hours in DMEM containing 10% FBS.
Then, the cells were starved by culturing for 24 hours in DMEM containing 1% FBS. Then, after treating with homoisoflavanone at 1 μg/mL for 1 hour, the cells were washed 3 times with PBS and irradiated with UV at 100 J/m^2 to induce COX-2 expression. Immediately after the UV radiation, the cells were washed again with PBS and further cultured for 16 hours in DMEM containing 1% FBS, while treating with homoisoflavanone at the same concentration.
Thereafter, Western blotting was performed as follows in order to measure the degree of COX-2 expression in the cultured cells. The cells of each group were lysed using RIPA buffer containing 2 mM EDTA, 137 mM NaCl, 20 mM Tris-HCl (pH, 8.0), 1 mM sodium vanadate, 10 mM NaF, 1 mM phenylmethanesulfonyl fluoride (PMSF), 1% Triton X-100, 10% glycerol and a protease inhibitor cocktail, and subjected to SDS-PAGE electrophoresis on 10% acrylamide gel to separate proteins, which were then transferred to a nylon membrane and separated using goat anti-COX-2 antibody (SantaCruz, USA) and anti-goat IgG-horse radish peroxidase (HRP) conjugation antibody (1:10000, Zymed) as secondary antibody. […]
Background: Immunoblotting shows a protein as a band on a membrane.

The next assay deals with BALB/c mouse. As to the kind of experiment: Ear edema induced by arachidonic acid in animal model. The following applies: topical 1 μg/10 μL homoisoflavanone or 50 μg/10 μL dexamethasone 1 h before arachidonic acid 100 mg/mL 10 μL, 1 hour after AA, vs AA control (FIG. 5a, 5b). The class given is in vivo. On the procedure: Experiment was carried out as follows using BALB/c mouse. Test groups are as follows: non-treated group—treated not with arachidonic acid (AA) but only with acetone; control group (AA)-treated with arachidonic acid; test group A—treated with 1 μg/10 μL homoisoflavanone or 50 μg/10 μL dexamethasone as well as 100 mg/mL 10 μL arachidonic acid.
One hour before treating with arachidonic acid, 1 μg/10 μL homoisoflavanone or 50 μg/10 μL dexamethasone was applied on the front and rear parts of the ear, 5 μL each. Then, 1 hour after applying 100 mg/mL 10 μL arachidonic acid, ear thickness and weight were measured.

The next assay concerns T cells. The assay is described as follows: Mixed lymphocyte reaction (MLR), T cell proliferation (3H-thymidine). Format: cell-based, mouse. The conditions noted are these: one-way MLR, BALB/C and C57B/C splenocytes, concentration-dependent (FIG. 9). On the procedure:
Mixed lymphocyte reaction (MLR) was carried out in order to investigate the inhibitory effect of homoisoflavanone against T cell proliferation. When mouse immune cells of different MHC classes are cultured as mixed with each other, the T cells recognize those of different MHC class as antigens and thus proliferate. One-way MLR was performed as follows. Following excision of spleens from BALB/C and C57B/C mice, the cells were individualized and red blood cells were lysed. After irradiation of 25 Gy γ-rays to BALB/C splenocytes to inactivate the BALB/C T cells, the BALB/C and C57B/C splenocytes (5×10^5 and 2×10^5 cells each) were mixed in a U-bottom 96-well plate. After treating with homoisoflavanone, the cells were incubated for 56 hours in an incubator of 5% CO2 and 37° C. Then, after further adding ^3[H]-thymidine (0.5) to each well, the cells were further incubated for 16 hours. Thereafter, the cells of each well were collected on filter paper and then put in a vial. After adding a scintillation solution (2 mL), counts per minute (CPM) was measured using a β-counter.

For a further assay, the system named is TNF-α. As to the kind of experiment: UV-induced TNF-α mRNA expression in HaCaT cells (real-time PCR). Format: cell-based, human. The following applies: 1 μg/mL, UV 100 J/m^2, compared to control group (FIG. 3). As for the experimental part:
1×10^6 HaCaT cells were inoculated on a 100-mm culture dish and cultured in DMEM containing 10% FBS for 24 hour. Then, the cells were starved by culturing for 24 hours in DMEM containing 1% FBS. Then, after treating with homoisoflavanone at 1 μg/mL for 1 hour, the cells were washed 3 times with PBS and irradiated with UV at 100 J/m^2 to induce increase of cytokines. Immediately after the UV radiation, the cells were washed again with PBS and further cultured for 2 or 5 hours in DMEM containing 1% FBS which had been treated with homoisoflavanone at the same concentration.
After extracting RNA from the cells of each test group using TRIzol (Invitrogen, USA), cDNA was prepared by carrying out PCR (PTC-225 Peltier thermal cycler, MJ Research, USA). Then, the mRNA expression of IL-6, IL-8 and TNF-α was measured through real-time PCR (Roter Gene 6000 series, Corbett Research, Australia) using the cDNA as template and using commercially available IL-6, IL-8 and TNF-α primers. The expression level of the pro-inflammatory cytokines was compared relative to the non-treated group.
(In general: Real-time PCR tracks product formation cycle by cycle.)

The next assay deals with Hairless mice. As to the kind of experiment: Ear edema transiently induced by croton oil in animal model. The class given is in vivo, mouse. The conditions noted are these: 1 μg/10 μL topical 1 h before 1.6% croton oil, 6 hours after croton oil (FIG. 10b). On the procedure:
Hairless mice were subdivided into a non-treated group (treated with acetone only, not with croton oil), a control group (treated with 1.6% croton oil) and a test group (treated with 1 μg/10 μL homoisoflavanone and 1.6% croton oil), and the effect on ear edema induced by croton oil was investigated.
One hour before treating with 1.6% croton oil, 1 μg/10 μL homoisoflavanone was applied on the front and rear parts of the ear, 5 μL each. Then, 6 hours after treating with croton oil, ear thickness was measured.

Another assay concerns ERK. The assay is described as follows: ERK phosphorylation induced by PMA and A23187 in HMC-1 (Western blot). The conditions noted are these: HMC-1, 2 μg/mL, 50 nM PMA + 1 μM A23187, 30 minutes (FIG. 7c). Format: cell-based, human. As for the experimental part: 1×10^6 HMC-1 cells were inoculated on a 100-mm culture dish and cultured in IMDM containing 10% FBS for 48 hours. […] Then, Western blotting was carried out in the same manner as in Example 2-1 except for using rabbit anti-p-cytosolic phospholipase A2 (cPLA2) antibody, rabbit anti-cPLA2 antibody, rabbit anti-ERK antibody and rabbit anti-p-ERK antibody (Cell Signaling) and using anti-rabbit IgG-HRP conjugation antibody (Zymed) as secondary antibody.

As to `COc1ccc(CC2COc3cc(O)cc(O)c3C2=O)cc1O` (stereo not shown) [homoisoflavanone], the “COX-2 expression induced by UV” value in the assay with COX-2 is on record as “decreased”. Further, in the assay on BALB/c mouse, the ear thickness result is “decrease” and the ear weight result is reported as “decrease”. Besides, the “concentrations at which proliferation of T cells was effectively inhibited” value with T cells is not below 0.25 µg/mL. Besides, the “expression of TNF-α (mRNA) induced by UV” value in the assay with TNF-α was “decreased expression”. The “decrease in ear thickness” value in the assay with Hairless mice amounted to 63%. Besides, in the assay with ERK, the ERK phosphorylation entry is on record as “no effect”.
